Data on four molecules can be found in US7217729B2, “Substituted indoles, process for the production thereof and use thereof for combatting pain” (Grunenthal GmbH, priority 2001, dated 2007).

The test system of the assay is Male NMRI mice. As to the kind of experiment: phenylquinone-induced writhing in mice (analgesic testing by writhing test). It is filed as in vivo. The settings on record: 10 mg/kg i.v., phenylquinone i.p. 10 minutes after compound, writhing counted 5–20 minutes after phenylquinone. The procedure:
The investigation into the analgesic efficacy of the compounds according to the invention was performed by phenylquinone-induced writhing in mice, modified after I. C. Hendershot, J. Forsaith, J. Pharmacol. Exp. There. 125, 237240 (1959). The corresponding literature description is hereby introduced as a reference and is deemed to be part of the disclosure.
Male NMRI mice weighing from 25–30 g were used for this purpose. Groups of 10 animals per compound dose received, 10 minutes after intravenous administration of the compounds tested, 0.3 ml/mouse of a 0.02% aqueous solution of phenylquinone (phenylbenzoquinone, Sigma, Deisenhofen; solution prepared with addition of 5% of ethanol and stored in a water bath at 45° C.) administered intraperitoneally. The animals were then placed individually in observation cages. A push button counter was used to record the number of pain-induced stretching movements (writhing reactions=straightening of the torso with stretching of the rear extremities) for 5–20 minutes after phenylquinone administration. The control was provided by animals which received only physiological common salt solution with phenylquinone.
The compounds according to the invention were tested at the standard dosage of 10 mg/kg. The percentage inhibition (% inhibition) of the writhing reactions by a compound was calculated according to the following formula: […]
Analgesic Testing by Writhing Test in Mice
The in-depth investigation into the analgesic efficacy of the compounds according to the invention was performed using phenylquinone-induced writhing in mice, as described above.

For `COc1cccc(C2(O)CCC(NCc3c(C(=O)O)[nH]c4cc(Cl)cc(Cl)c34)CC2CN(C)C)c1` (stereo not shown) [Compound 3, 4,6-Dichloro-3-{[3′-(N,N-dimethylaminomethyl)-4′-hydroxy-4′-(3″-methoxyphenyl)-cyclohexylamino]-methyl}-1H-indole 2-carboxylic acid], the “% inhibition of writhing reactions” value came out at 72%.

With “5-Chloro-3-{[3′-(N,N-dimethylaminomethyl)-4′-hydroxy-4′-(3″-methoxyphenyl)-cyclohexylamino]-methyl}-1H-indole 2-carboxylic acid ester [Compound 1]”, the “% inhibition of writhing reactions” value is reported as 48%.

As to `CCOC(=O)c1c(CNC2CCC(O)(c3cccc(OC)c3)C(CN(C)C)C2)c2c(Cl)cc(Cl)cc2n1C(=O)OC(C)(C)C` (stereo not shown) [Compound 4], the “% inhibition of writhing reactions” value was 100%.

Take `CCOC(=O)c1[nH]c2cc(Cl)cc(Cl)c2c1CNC1CCC(O)(c2cccc(OC)c2)C(CN(C)C)C1` (stereo not shown) [Compound 2, 4,6-Dichloro-3-{[3′-(N,N-dimethylaminomethyl)-4′-hydroxy-4′-(3″-methoxyphenyl)-cyclohexylamino]-methyl}-1H-indole 2-carboxylic acid ethyl ester]: the “% inhibition of writhing reactions” value stood at 97%.
